This is an account of results in patent US9695127B2, “Compounds for treating HIV and methods for using the compounds” (University of Pittsburgh—Of the Commonwealth System of …, priority 2012, dated 2017).

The test system of one test is HIV-1 NL4-3. Kind of test: HIV-1 infectivity in TZM-b1 reporter cells (luciferase). It counts as cell-based. Particulars: 3 μM, TZM-b1 reporter cells. The procedure:
Compounds (1 μM) shown in FIG. 7 were added to cultures of U87MG and CEM-T4 cells in 96-well plates, followed by infection with wild-type HIV-1 NL4-3 (50 pg p24 equivalents/ml) 1 hour later. […] Virus replication was assessed by p24 ELISA after 4 days (U87MG) or 9 days (CEM-T4). Data are expressed as the mean percent inhibition as compared to control cultures incubated with the carrier solvent (DMSO)±S.E.M. (n=4). […] FIG. 9 concerns infectivity assays. Compounds (3 μM) were added to cultures of the reporter cell line TZM-b1 followed by infection with either wild-type or Nef-defective (ΔNef) HIV NL4-3 in 96-well plates. After 48 hours, relative virus infectivity was assessed as luciferase production in infected cells. […]
HIV assays: Viral stocks were prepared by transfection of 293T cells (ATCC) with wild-type and Nef-defective (ΔNef) proviral genomes (NL4—3 strain) and amplified in the T-cell line, MT2 (NIH AIDS Research and Reference Reagent Program). Viral replication was assessed in the U87MG astroglioma cell line engineered to express the HIV-1 co-receptors CD4 and CXCR4 or in the T-lymphoblast cell line, CEM-T4. […] Compounds were solubilized in DMSO, and added to the cell culture medium 1 h prior to infection with HIV. Viral replication was monitored for either 4 days (U87MG) or 9 days (CEM-T4) by measuring p24 Gag protein levels in the culture supernatant using standard ELISA-based techniques. HIV-1 infectivity was measured using the reporter cell line, TZM-b1 (NM AIDS Research and Reference Reagent Program). Cells were grown in 96-well plates (2.5×10^4) 8 h prior to virus infection to permit adherence. Compounds were pre-incubated with wild-type HIV-1 for 4 h prior to addition to the cells in a final volume of 200 μl. After 48 h at 37° C., the cells were washed with PBS and lysed in luciferase lysis buffer (Promega) by rocking for 15 min Lysates (40 μl) were transferred to white 96-well plates and 50 μl luciferase reagent (Promega) was injected into each well. Readings were recorded with a delay time of 2 sec and an integration period of 10 sec.
Take `Cc1nn(C(=N)N)c(O)c1CCc1ccc(F)cc1` [JV-1-87]: the “INFECTIVITY @ 3 μM % Inhibition vs. DMSO control” value came to 0.0%.

As to `COc1ccc(-c2nn(C(N)=S)c(O)c2CCc2ccc(F)cc2)cc1` [JV-1-94], the “INFECTIVITY @ 3 μM % Inhibition vs. DMSO control” value is 0.0%.

The same test, now with this note: Human immunodeficiency virus 1, NL43, TZM-b1, 48 h, read-out: INFECTIVITY @ 3 μM % Inhibition vs. DMSO control.
With `N=C(N)n1nc(-c2ccc(F)cc2)c(Cc2cccc(Cl)c2)c1O` [DD-1-21], the inhibition at 3 µM amounted to 0%.

For the molecule `Oc1c(Cc2cccc(Cl)c2)c(-c2ccc(F)cc2)nn1C1=NCCN1` [DD-1-22], the inhibition at 3 µM was 0%.

For `Cc1c(Cc2cccc(Cl)c2)c(-c2ccccc2)nn1C(=N)N` [DD-1-26], the inhibition at 3 µM came to 0%.

`COc1ccc(-c2nn(C(=N)N)c(O)c2Cc2cccc(Cl)c2)cc1` [DD-1-27]: the inhibition at 3 µM amounted to 0%.

With `Nc1c(Cc2cccc(Cl)c2)c(-c2ccc(F)cc2)nn1C1=NCCN1` [DD-1-30], the inhibition at 3 µM was 0%.

On to `COc1cccc(Cc2c(-c3ccc([N+](=O)[O-])cc3)nn(C(=N)N)c2O)c1` [EAF-1-21], for which the inhibition at 3 µM came out at 0%.

With `COc1cccc(Cc2c(-c3ccc(F)cc3)nn(C(=N)N)c2O)c1` [EAF-1-22], the inhibition at 3 µM worked out at 0%.

With `N=C(N)n1nc(-c2ccc([N+](=O)[O-])cc2)cc1O` [JV-1-62-2-2], the inhibition at 3 µM was 0%.

Regarding `COc1ccc(-c2nn(C(=N)N)c(O)c2CCc2cccc(OC)c2)cc1` [JV-1-67-1], the inhibition at 3 µM worked out at 0%.

Consider `COc1ccc(-c2nn(C3=NCCN3)c(O)c2CCc2cccc(OC)c2)cc1` [JV-1-71-1], for which the inhibition at 3 µM was 25.2%.

With `COc1ccc(-c2n[nH]c(O)c2CCc2ccc(F)cc2)cc1` [JV-1-75-1], the inhibition at 3 µM was 0%.

Take `COc1ccc(-c2nn(-c3ccccc3)c(OC)c2CCc2ccc(F)cc2)cc1` [JV-1-81]: the inhibition at 3 µM was 19.7%.

With `N=C(N)n1nc(-c2ccc(C(F)(F)F)cc2)c(Cc2cccc(Cl)c2)c1O` [JV-2-9-1], the inhibition at 3 µM stood at 0%.

Consider `N=C(N)n1nc(-c2ccc([N+](=O)[O-])cc2)c(Cc2cccc(Cl)c2)c1O` [JV-2-10], for which the inhibition at 3 µM turned out to be 3%.

In the case of `NC(=S)n1nc(-c2ccc(C(F)(F)F)cc2)c(Cc2cccc(Cl)c2)c1O` [JV-2-12], the inhibition at 3 µM was 41.7%.

Regarding `O=[N+]([O-])c1ccc(-c2n[nH]c(O)c2Cc2ccc(F)cc2)cc1` [JV-2-13], the inhibition at 3 µM turned out to be 1.7%.

On to `Oc1c(Cc2cccc(Cl)c2)c(-c2ccc(C(F)(F)F)cc2)nn1C1=NCCN1` [JV-2-14], for which the inhibition at 3 µM was 54.7%.

Take `N=C(N)n1nc(-c2ccccc2)c(Cc2cccc(Cl)c2)c1N` [JV-2-16]: the inhibition at 3 µM came to 0%.

As for `N=C(N)n1nc(-c2ccc(F)cc2)c(Cc2cccc(Cl)c2)c1N` [JV-2-19], the inhibition at 3 µM was 0%.

With `COc1ccccc1/N=N/c1c(-c2ccc([N+](=O)[O-])cc2)nn(C(N)=S)c1O` [JZ-1-49], the inhibition at 3 µM came out at 0%.

Take `COc1ccc(/N=N/c2c(-c3ccc([N+](=O)[O-])cc3)n[nH]c2O)cc1` [JZ-1-50]: the inhibition at 3 µM is 28.9%.

Regarding `COc1cccc(/N=N/c2c(-c3ccc([N+](=O)[O-])cc3)nn(C(N)=S)c2O)c1` [JZ-1-56], the inhibition at 3 µM was 0%.

Regarding `Oc1[nH]nc(-c2ccccc2)c1/N=N/c1ccccc1` [JZ-1-58-2], the inhibition at 3 µM amounted to 1.7%.

Regarding `NC(=S)n1nc(-c2ccccc2)c(/N=N/c2ccccc2)c1O` [JZ-1-58-3], the inhibition at 3 µM was 7.3%.

In the case of `COc1ccc(-c2nn(C(N)=S)c(O)c2/N=N/c2cccc(Cl)c2)cc1` [JZ-1-62], the inhibition at 3 µM was found to be 9.3%.

With `NC(=S)n1nc(-c2ccc(C(F)(F)F)cc2)c(/N=N/c2cccc(Cl)c2)c1O` [JZ-1-64], the inhibition at 3 µM amounted to 26.5%.

With `NC(=S)n1nc(-c2ccc([N+](=O)[O-])cc2)cc1O` [JZ-1-94], the inhibition at 3 µM came out at 0%.

For the molecule `COc1ccc(-c2nn(-c3ccccc3)c(OC)c2/C=C/c2ccccc2)cc1` [JZ-1-145-1], the inhibition at 3 µM worked out at 0%.

`COc1ccc(-c2nn(-c3ccccc3)c(OC)c2/C=C/c2cccc(F)c2)cc1` [JZ-1-146-1]: the inhibition at 3 µM stood at 0%.

Usually inhibition stands for the relative decrease from the control value, in per cent.
